Values joined by “and” are separate entries in the source; they are usually repeats but may differ in a detail not shown here. Equal entries are not always repeated. Inconclusive results and toxic doses are left out. No stated cut-off is given here; in the data, active means T/C of 150% or more; inactive means T/C below 125%.
Test system: L1210 leukemia ip in BDF1 mice, survival T/C
Experiment: NCI In Vivo Anticancer Drug Screen. Data for tumor model L1210 Leukemia (intraperitoneal) in B6D2F1 (BDF1) mice
Conditions: endpoint: mean survival time, higher = longer survival
Summary of the method: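 Mice bearing the transplanted tumor received compound or vehicle. Survival of the treated group was divided by that of the vehicle-treated control group to give the ratio.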

[1] = dose: 100.0 mg/kg/injection, schedule: Q01DX001 (ip), vehicle: carboxymethylcellulose (CMC)
[2] = dose: 200.0 mg/kg/injection, schedule: Q01DX001 (ip), vehicle: carboxymethylcellulose (CMC)
[3] = dose: 400.0 mg/kg/injection, schedule: Q01DX001 (ip), vehicle: carboxymethylcellulose (CMC)
[4] = dose: 100.0 mg/kg/injection, schedule: Q01DX009 (ip), vehicle: Klucel (hydroxypropylcellulose) (HPC)
[5] = dose: 100.0 mg/kg/injection, schedule: Q04DX003 (ip), vehicle: Klucel (hydroxypropylcellulose) (HPC)
[6] = dose: 200.0 mg/kg/injection, schedule: Q01DX009 (ip), vehicle: Klucel (hydroxypropylcellulose) (HPC)
[7] = dose: 200.0 mg/kg/injection, schedule: Q04DX003 (ip), vehicle: Klucel (hydroxypropylcellulose) (HPC)
[8] = dose: 100.0 mg/kg/injection, schedule: Q01DX009 (ip), vehicle: saline with Tween-80
[9] = dose: 100.0 mg/kg/injection, schedule: Q04DX002 (ip), vehicle: Klucel (hydroxypropylcellulose) (HPC)
[10] = dose: 200.0 mg/kg/injection, schedule: Q01DX009 (ip), vehicle: saline with Tween-80
[11] = dose: 200.0 mg/kg/injection, schedule: Q04DX002 (ip), vehicle: Klucel (hydroxypropylcellulose) (HPC)
[12] = dose: 400.0 mg/kg/injection, schedule: Q01DX009 (ip), vehicle: saline with Tween-80
[13] = dose: 400.0 mg/kg/injection, schedule: Q04DX002 (ip), vehicle: Klucel (hydroxypropylcellulose) (HPC)
[14] = dose: 100.0 mg/kg/injection, schedule: Q04DX002 (ip), vehicle: saline with Tween-80
[15] = dose: 200.0 mg/kg/injection, schedule: Q04DX002 (ip), vehicle: saline with Tween-80
[16] = dose: 400.0 mg/kg/injection, schedule: Q04DX002 (ip), vehicle: saline with Tween-80
[17] = dose: 100.0 mg/kg/injection, schedule: Q01DX001 (ip), vehicle: Klucel (hydroxypropylcellulose) (HPC)
[18] = dose: 200.0 mg/kg/injection, schedule: Q01DX001 (ip), vehicle: Klucel (hydroxypropylcellulose) (HPC)
[19] = dose: 400.0 mg/kg/injection, schedule: Q01DX001 (ip), vehicle: Klucel (hydroxypropylcellulose) (HPC)

Measured: T/C

O=C1c2ccccc2C(=O)C2C3C=CC(C3)C12 (stereo not given)
inactive: dose: 50.0 mg/kg/injection, schedule: Q01DX001 (ip), vehicle: carboxymethylcellulose (CMC) 93 % of control | [1] 100 % of control | [2] 100 % of control | [3] 103 % of control

NC(=S)N/N=C1/C(=O)c2cccc3cccc1c23
inactive: dose: 75.0 mg/kg/injection, schedule: Q01DX001 (ip), vehicle: other 96 % of control

Nc1cc(Cl)cc2c1-c1c(Cl)cc(Cl)cc1C2=O
inactive: [4] 100 % of control | [5] 97 % of control | [6] 106 % of control | [7] 95 % of control

CCCCN(CCCC)c1ccc([N+](=O)[O-])c2no[n+]([O-])c12
inactive: dose: 15.0 mg/kg/injection, schedule: Q04DX003 (ip), vehicle: saline with Tween-80 100 % of control | dose: 30.0 mg/kg/injection, schedule: Q04DX003 (ip), vehicle: saline with Tween-80 100 % of control | dose: 60.0 mg/kg/injection, schedule: Q04DX003 (ip), vehicle: saline with Tween-80 100 % of control

Nc1ccc(N)cc1 (tested in a mixture with another compound)
inactive: dose: 50.0 mg/kg/injection, schedule: Q01DX009 (ip), vehicle: DMSO 103 % of control | dose: 100.0 mg/kg/injection, schedule: Q01DX009 (ip), vehicle: DMSO 91 % of control | dose: 100.0 mg/kg/injection, schedule: Q04DX003 (ip), vehicle: DMSO 91 % of control | dose: 200.0 mg/kg/injection, schedule: Q04DX003 (ip), vehicle: DMSO 94 % of control

NC(Cc1ccc(O)cc1)C(=O)OCc1ccccc1 (stereo not given)
inactive: [8] 88 % of control | [9] 104 % of control | dose: 100.0 mg/kg/injection, schedule: Q04DX003 (ip), vehicle: saline with Tween-80 97 % of control | [10] 94 % of control | [11] 96 % of control | dose: 200.0 mg/kg/injection, schedule: Q04DX003 (ip), vehicle: saline with Tween-80 94 % of control | [12] 91 % of control | [13] 96 % of control | dose: 400.0 mg/kg/injection, schedule: Q04DX003 (ip), vehicle: saline with Tween-80 103 % of control

OCC1C2C=CC(C3C=CC32)C1CO (stereo not given)
inactive: [9] 98 % of control | [11] 98 % of control | [13] 113 % of control

CCCCP(=S)(N1CCCCC1)N1CCCCC1
inactive: dose: 100.0 mg/kg/injection, schedule: Q04DX003 (ip), vehicle: saline 95 % of control | dose: 200.0 mg/kg/injection, schedule: Q04DX003 (ip), vehicle: saline 97 % of control | dose: 400.0 mg/kg/injection, schedule: Q04DX003 (ip), vehicle: saline 86 % of control

O=C1c2cc(F)ccc2-c2cc(Br)c([N+](=O)[O-])cc21
inactive: [1] 97 % of control | [2] 103 % of control | [3] 95 % of control

CCN(CC)CCCNc1cc(OC)cc2cccnc12
inactive: dose: 10.0 mg/kg/injection, schedule: Q01DX001 (ip), vehicle: carboxymethylcellulose (CMC) 107 % of control | dose: 20.0 mg/kg/injection, schedule: Q01DX001 (ip), vehicle: carboxymethylcellulose (CMC) 101 % of control

O=C(Nc1cccc(O)c1)Oc1cccc(Cl)c1
inactive: [8] 98 % of control | [10] 102 % of control | [12] 106 % of control

O=[N+]([O-])c1ccc(C[Se]c2ncnc3c2ncn3C2OC(CO)C(O)C2O)cc1 (stereo not given)
inactive: dose: 3.12 mg/kg/injection, schedule: Q01DX009 (ip), vehicle: saline 100 % of control | dose: 6.25 mg/kg/injection, schedule: Q01DX005 (ip), vehicle: saline 106 % of control | dose: 6.25 mg/kg/injection, schedule: Q01DX009 (ip), vehicle: saline 98 % of control | dose: 12.5 mg/kg/injection, schedule: Q01DX005 (ip), vehicle: saline 96 % of control | dose: 12.5 mg/kg/injection, schedule: Q01DX009 (ip), vehicle: saline 98 % of control | dose: 12.5 mg/kg/injection, schedule: Q01DX009 (ip), vehicle: water 93 % of control | dose: 25.0 mg/kg/injection, schedule: Q01DX005 (ip), vehicle: saline 109 % of control | dose: 25.0 mg/kg/injection, schedule: Q01DX009 (ip), vehicle: saline 102 % of control | dose: 25.0 mg/kg/injection, schedule: Q01DX009 (ip), vehicle: water 98 % of control | dose: 50.0 mg/kg/injection, schedule: Q01DX009 (ip), vehicle: water 93 % of control

CC(C)(C)N1OC2(CCCCC2)n2c(=O)c3ccccc3c(=O)n2C1c1ccccc1 (stereo not given)
inactive: [14] 97 % of control | [15] 90 % of control | [16] 108 % of control

CCOC(=O)C12CCC=C1N(S(=O)(=O)N(C)C)c1ccc(NS(=O)(=O)N(C)C)cc12 (stereo not given)
inactive: dose: 45.0 mg/kg/injection, schedule: Q04DX003 (ip), vehicle: Klucel (hydroxypropylcellulose) (HPC) 105 % of control | dose: 65.0 mg/kg/injection, schedule: Q04DX003 (ip), vehicle: Klucel (hydroxypropylcellulose) (HPC) 105 % of control | [17] 97 % of control | [5] 105 % of control and 120 % of control | [18] 104 % of control | [7] 89 % of control | [19] 98 % of control | dose: 400.0 mg/kg/injection, schedule: Q04DX003 (ip), vehicle: Klucel (hydroxypropylcellulose) (HPC) 97 % of control

O=C(CCCCCCCCC(=O)Nc1ccccc1F)Nc1ccccc1F
inactive: [4] 101 % of control | [6] 102 % of control | dose: 400.0 mg/kg/injection, schedule: Q01DX009 (ip), vehicle: Klucel (hydroxypropylcellulose) (HPC) 101 % of control

NC(C(=O)O)C1SCCS1 (stereo not given)
inactive: [1] 102 % of control | [2] 102 % of control | [3] 98 % of control

COc1ccc(Nc2ccc3c4c(cccc24)C(=O)N(c2ccc(OC)cc2)C3=O)cc1
inactive: [14] 92 % of control | [15] 95 % of control | [16] 92 % of control

O=C1c2cccc(Cl)c2C(=O)c2c(NCCO)cccc21
inactive: [17] 96 % of control | [18] 101 % of control | [19] 97 % of control

OCCSc1ccc2ccccc2c1
inactive: [14] 94 % of control | [15] 90 % of control | [16] 103 % of control

Source: PubChem BioAssay AID248 (DTP/NCI, 2004)
